Experimental data taken from US20240075031A1 (HHT Foundation International, Inc., priority 2020, published 2024).
Where two headings read alike, the source gives them in different places.

How the values were obtained:
[1] = test system: transfusion-dependent adults with HHT (epistaxis and/or GI bleeding); assay: Single-center pazopanib treatment pathway for severe bleeding and transfusion-dependent anemia in HHT; conditions: for RBC units transfused, median (IQR): pretreatment 3 months 16.0 (9.5-22.0); for patients with transferrin saturation ≥20%: no patient at baseline
Text: In some embodiments, and still referring to FIG. 1, subjects may undergo follow-up clinical visits with vital signs, laboratory evaluations [complete blood count with white-cell differential, serum ferritin, iron and transferrin saturation, complete metabolic panel including liver function testing (transaminases, bilirubin, and alkaline phosphatase), serum phosphorous, urinalysis, and thyroid-stimulating hormone levels], electrocardiogram, and ESS calculations at a preconfigured time interval such as but not limited to 1 month, 2 months, 3 months, 4 months, 5 months, 6 months, and the like thereof per the pathway, with additional laboratory testing and visits as indicated.
In some embodiments, one or more secondary endpoints may include hemoglobin concentrations, epistaxis severity scores, iron infusions, baseline serum ferritin, and/or transferrin saturation.
Baseline and on-treatment hemoglobin values were drawn at clinical nadir (just prior to a scheduled transfusion) to minimize any impact of transfusion on the value. If more than one value was measured in a given 3-month period, the average value for that period was documented for analysis.
Now referring to FIG. 3B, three-month ESS was collected by the treating physician at treatment initiation and visits at 3, 6, 9, and 12 months on-treatment.
Now referring to FIG. 3C, a number of RBC units transfused in the 3 months of pretreatment were compared with the number of units transfused at each 3-month time interval on-treatment (1-3, 4-6, 7-9, and 10-12 months). The same analysis was performed for the total milligrams of elemental iron administered by IV infusion.
Baseline and on-treatment iron studies were drawn at nadir (prior to iron infusion or RBC transfusion, if either was given) to minimize any impact of recent iron infusion or RBC transfusion on the values.

[2] = 6 patient PK study, 50 mg SD, powder in capsule (disclosed method); format: in vivo, patients; conditions: for AUC / Cmax: 50 mg
Text: In some embodiments, may be similar to the results expected of a crushed tablet. No reduction in the standard error (SE), but only 6 patients may not be adequate to see this range of exposures decrease. An improvement with powder in capsules is that the variation in exposure should also be truncated based on prior crushed tablet study.

[3] = parameters: AUC.0-24, Mean: unit not given beside the values; conditions: historical values, Hurwitz 2009; 50 mg SD; cited from earlier work
[4] = disclosed method, 6 patients, 50 mg SD

increase in the Area Under the Curve (AUC) from prior publications of comparable dosing ([2]; capsule enclosing a powder substance): 20-25%
C24, GeoMean [2, 4]: 1.90
C24, Mean [2, 4]: 2.09
AUC ([2]; human, plasma, oral, disclosed method, 6 patients, 50 mg SD, read-out: AUC.0-24, GeoMean): 59800 ng·h/mL
AUC ([2]; human, plasma, oral, disclosed method, 6 patients, 50 mg SD, read-out: AUC.0-24, Mean): 64400 ng·h/mL
Cmax ([2]; human, plasma, oral, disclosed method, 6 patients, 50 mg SD, read-out: Cmax, GeoMean): 3820 ng/mL
Cmax ([2]; human, plasma, oral, disclosed method, 6 patients, 50 mg SD, read-out: Cmax, Mean): 4120 ng/mL
Tmax ([2]; human, plasma, oral, disclosed method, 6 patients, 50 mg SD, read-out: Tmax, median): 4.5 h
SMILES: Cc1ccc(Nc2nccc(N(C)c3ccc4c(C)n(C)nc4c3)n2)cc1S(N)(=O)=O [pazopanib]
RBC units transfused, median (IQR) ([1]; 1-3 months of on-treatment): 0.0 (0.0-1.0) units
elemental iron infused, median (IQR) ([1]; 1-3 months on-treatment, pretreatment 3 months 4500 (2145-7260)): 0 (0-1500) milligrams
patients with freedom from anemia (Hgb≥11 g/dL) ([1]; 3 months): 15%
RBC units transfused, median (IQR) ([1]; 4-6, 7-9, and 10-12 months of on-treatment): 0.0 (0.0-0.0) units
elemental iron infused, median (IQR) ([1]; 4-6 months on-treatment): 0 (0-1260) milligrams
patients with freedom from anemia (Hgb≥11 g/dL) ([1]; 6 months): 85%
patients with transferrin saturation ≥20% ([1]; 6 months, 8 patients): 62%
elemental iron infused, median (IQR) ([1]; 7-9 months on-treatment): 0 (0-1260) milligrams
patients with freedom from anemia (Hgb≥11 g/dL) ([1]; 9 months): 85%
elemental iron infused, median (IQR) ([1]; 10-12 months on-treatment): 0 (0-510) milligrams
patients with freedom from anemia (Hgb≥11 g/dL) ([1]; 12 months): 92%
patients not requiring any local hemostatic procedures after initiating treatment ([1]; 12 months on-treatment, 9 patients): 69%
patients with transferrin saturation ≥20% ([1]; 12 months, 7 patients): 54%
patients achieving RBC transfusion independence ([1]; at 3 months of treatment, 10 of 13 patients): 77%
remaining patients achieving RBC transfusion independence ([1]; at 6 months of treatment, 3 of 13 patients): 23%
patients entirely RBC transfusion free ([1]; during the 12 months following pazopanib initiation, 9 of 13 patients): 69%
number of local hemostatic procedures, median (range) ([1]; during the 12 months of on-treatment, 12 months pretreatment 4 (1-5)): 0 (0-2)
patients achieving RBC transfusion independence per Gale criteria ([1]; first year of pazopanib treatment, 13 patients analysed): 13 patients
transferrin saturation, median (IQR) ([1]; on-treatment (average of values at 6 and 12 months), baseline 9% (5-11%)): 23%
serum ferritin, median (IQR) ([1]; on-treatment (average of values at 6 and 12 months), baseline 31 (16-71)): 122 (79-154) ng/mL
AUC.0-24, Mean [3]: 51.8
C24, Mean [3]: 1.5
Tmax, median [3]: 3.0/
